In paper PMC11876601 (Molecular Systems Biology, 2025):
Where two headings read alike, the source gives them in different places.

Test system: 13 PDAC cell lines
Experiment: Phenotypic drug combination viability screen (ATPlite, 72 h), cell line panel
Type: cell-based, human
Conditions: for EC50: Homo sapiens

Row | SMILES | EC50 (read-out: EC50,GEM) [nM] | EC50 (read-out: EC50) [nM] | number of cell lines with synergy with GEM (of 13 cell lines, Bliss model) [cell lines]
1 | Nc1ccn([C@@H]2O[C@H](CO)[C@@H](O)C2(F)F)c(=O)n1 [GEM, Gemcitabine] | < 10 | ≥ 1 | 
2 | COc1cc(N2CCC(N3CCN(C)CC3)CC2)ccc1Nc1ncc(Cl)c(Nc2ccccc2P(C)(C)=O)n1 [Brigatinib] |  |  | 5
